Where a name gives a salt, the structure may show the parent alone.
Legend:
[1] = tested on: Swiss albino mice; experiment: Plasma triglyceride and total cholesterol lowering activity in Swiss albino mice and guinea pigs; type: in vivo, mouse; conditions: dose 3 mg/kg, oral, 6 days
Method: c) Plasma Triglyceride and Total Cholesterol Lowering Activity in Swiss Albino Mice and Guinea Pigs
Male Swiss albino mice (SAM) and male Guinea pigs were obtained from NIN and housed in DRF animal house. All these animals were maintained under 12 hour light and dark cycle at 25±1° C. Animals were given standard laboratory chow (NIN, Hyderabad, India) and water, ad libitum. SAM of 20-25 g body weight range and Guinea pigs of 500-700 g body weight range were used (Oliver, P., Plancke, M. O., Marzin, D., Clavey, V., Sauzieres, J and Fruchart, J. C. Effects of fenofibrate, gemfibrozil and nicotinic acid on plasma lipoprotein levels in normal and hyperlipidemic mice. Atherosclerosis. 1988. 70: 107-114).
The test compounds were administered orally to Swiss albino mice at 0.3 to 30 mg/kg/day dose for 6 days. Control mice were treated with vehicle (0.25% Carboxymethylcellulose; dose 10 ml/kg). The test compounds were administered orally to Guinea pigs at 0.3 to 30 mg/kg/day dose for 6 days. Control animals were treated with vehicle (0.25% Carboxymethylcellulose; dose 5 ml/kg).
The blood samples were collected in fed state 1 hour after drug administration on 0 and 6 day of treatment. The blood was collected from the retro-orbital sinus through heparinised capillary in EDTA containing tubes. After centrifugation, plasma sample was separated for triglyceride and total cholesterol (Wieland, O. Methods of Enzymatic analysis. Bergermeyer, H. O., Ed., 1963. 211-214; Trinder, P. Ann. Clin. Biochem. 1969. 6: 24-27). Measurement of plasma triglyceride, total cholesterol and HDL were done using commercial kits (Dr. Reddy's Diagnostic Division, Hyderabad, India).
(§1) 1. Percent reduction in Blood sugar/triglycerides/total cholesterol were calculated according to the formula: [formula]

[2] = tested on: C57BL/KsJ-db/db mice; experiment: Blood sugar and triglyceride lowering in db/db mice; type: in vivo, mouse; conditions: dose 0.03 mg/kg, oral gavage daily for 6 days
Excerpt: Mutation in colonies of laboratory animals and different sensitivities to dietary regimens have made the development of animal models with non-insulin dependent diabetes and hyperlipidemia associated with obesity and insulin resistance possible. Genetic models such as db/db and ob/ob (Diabetes, (1982)31(1): 1-6) mice and zucker fa/fa rats have been developed by the various laboratories for understanding the pathophysiology of disease and testing the efficacy of new antidiabetic compounds (Diabetes, (1983)32: 830-838; Annu. Rep. Sankyo Res. Lab. (1994).46:1-57). […]
The random blood sugar and triglyceride levels were measured by collecting blood (100 μl) through orbital sinus, using heparinised capillary in tubes containing EDTA which was centrifuged to obtain plasma. The plasma glucose and triglyceride levels were measured spectrometrically, by glucose oxidase and glycerol 3 PO4 oxidase/peroxidase enzyme (Dr. Reddy's Lab. Diagnostic Division Kits, Hyderabad, India) methods respectively.
The blood sugar and triglycerides lowering activities of the test compound was calculated according to the formula.
as §1

[3] = biological target: T1, hPPARγ1 (Homo sapiens, UniProt P37231); experiment: Determination of hPPARγ activity (GAL4-LBD luciferase reporter in HEK-293 cells); type: cell-based; conditions: 1 μM compound, transfected HEK-293 cells
T1 construct: expressed in transfected cells; host or cells: HEK-293
T1 sequence (P37231 238-503 limits assumed): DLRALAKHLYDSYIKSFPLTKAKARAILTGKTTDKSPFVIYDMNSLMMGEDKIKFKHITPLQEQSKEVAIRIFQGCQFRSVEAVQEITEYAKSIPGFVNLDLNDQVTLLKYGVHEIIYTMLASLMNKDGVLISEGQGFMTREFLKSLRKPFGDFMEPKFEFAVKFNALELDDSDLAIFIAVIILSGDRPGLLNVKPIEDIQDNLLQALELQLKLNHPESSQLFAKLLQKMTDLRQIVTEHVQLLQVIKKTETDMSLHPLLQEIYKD
Method: b) Determination of hPPARγ Activity
Ligand binding domain of hPPARγ1 was fused to DNA binding domain of Yeast transcription factor GAL4 in eucaryotic expression vector. Using lipofectamine (Gibco BRL, USA) as transfecting reagent HEK-293 cells were transfected with this plasmid and a reporter plasmid harboring the luciferase gene driven by a GAL4 specific promoter. Compound was added at 1 μM concentration after 48 hrs of transfection and incubated overnight. Luciferase activity as a function of drug binding/activation capacity of PPARγ1 was measured using Packard Luclite kit (Packard, USA) in Packard Top Count (Ivan Sadowski, Brendan Bell, Peter Broag and Melvyn Hollis. Gene. 1992. 118: 137-141; Guide to Eukaryotic Transfections with Cationic Lipid Reagents. Life Technologies, GIBCO BRL, USA).

[4] = biological target: T2, hPPARα (Homo sapiens, UniProt Q07869); experiment: Determination of hPPARα activity (GAL4-LBD luciferase reporter in HEK-293 cells); type: cell-based; conditions: 50 μM compound, transfected HEK-293 cells
T2 construct: expressed in transfected cells; host or cells: HEK-293
T2 sequence (Q07869 239-466 limits assumed): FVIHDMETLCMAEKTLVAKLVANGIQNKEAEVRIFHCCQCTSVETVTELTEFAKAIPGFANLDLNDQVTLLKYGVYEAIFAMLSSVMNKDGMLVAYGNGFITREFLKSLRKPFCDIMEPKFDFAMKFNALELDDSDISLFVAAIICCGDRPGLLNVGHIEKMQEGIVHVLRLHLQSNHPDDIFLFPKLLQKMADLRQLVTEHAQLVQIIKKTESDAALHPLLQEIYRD
Method: a) Determination of hPPARα Activity
Ligand binding domain of hPPARα was fused to DNA binding domain of Yeast transcription factor GAL4 in eucaryotic expression vector. Using superfect (Qiagen, Germany) as transfecting reagent HEK-293 cells were transfected with this plasmid and a reporter plasmid harboring the luciferase gene driven by a GAL4 specific promoter. Compound was added at different concentrations after 42 hrs of transfection and incubated overnight. Luciferase activity as a function of compound binding/activation capacity of PPARα was measured using Packard Luclite kit (Packard, USA) in Top Count (Ivan Sadowski, Brendan Bell, Peter Broag and Melvyn Hollis. Gene. 1992. 118: 137 -141; Superfect Transfection Reagent Handbook. February 1997, Qiagen, Germany).

[5] = Single dose oral pharmacokinetic studies; type: in vivo; conditions: male Wistar rats, suspension in 0.25% sodium CMC
Method: Single Dose Oral Pharmacokinetic Studies
Male Wistar rats (220-250 gm) were used in the experiments. The animals were maintained under standard laboratory conditions and had free access to feed and water ad libitum. Before experimentation animals were fasted overnight (˜15 h) during which they had free access to water ad libitum.
An amount equivalent to 30 mg of drug was weighed accurately and transferred into a clean mortar and triturated to obtain a fine powder. To this 0.5 ml of 0.25% sodium carboxy methyl cellulose (sodium CMC) was added to obtain a paste. To the obtained paste remaining 2.5 ml of sodium CMC was added to make up the volume to 3 ml. Based on the animal weight appropriate volume (body weight×3) of the prepared suspension was administered through oral gavage.
After dosing, at designated time points (0.5, 1, 2, 3, 5, 8, 12 and 24 h) 200 μl of blood was collected from retro orbital plexus into 0.5 ml eppendorff tubes containing EDTA (10 μl of 200 mg/ml solution in Milli Q water). Blood was centrifuged at 12,800 rpm for 5 min and obtained plasma and stored at −20° C. till further analysis.
100 μl plasma was transferred into a clean and dry centrifuge tube. To this internal standard (10 μl of 100 μg/ml) was added and extracted with 2 ml of extraction recovery solvent. The contents were vortexed for 2 min, followed by centrifugation for 10 min at 2800 rpm. Clear organic layer (2×0.75 ml) was separated and dried under nitrogen gas at 50° C. The residue was reconstituted with 150 μl of mobile phase and vortexed for 20 sec, from this 50 μl was injected onto HPLC column.
Pharmacokinetic parameters were calculated by non-compartmental model analysis. The peak plasma concentration (Cmax) and the corresponding time (Tmax) were directly obtained from the raw data. The area under the plasma concentration versus time curve up to the last quantifiable time point, AUC(0-t) was obtained by the linear and log-linear trapezoidal summation. The AUC(0-t) extrapolated to infinity (i.e., AUC(0-∞)) by adding the quotient of Clast/Kel, where Clast represents the last measurable time concentration and Kel represents the apparent terminal rate constant. Kel was calculated by the linear regression of the log-transformed concentrations of the drug in the terminal phase. The half-life of the terminal elimination phase was obtained using the relationship

| SMILES | melting point [°C] | Triglyceride Lowering (%) [1] [%] | PPARγ (luciferase activity) [3] | PPARα (luciferase activity) [4] | other results |
| --- | --- | --- | --- | --- | --- |
| CCO[C@@H](Cc1ccc(OCCN2CCSc3ccccc32)cc1)C(=O)O (as salt: salt) [Example 1] | 126 to 128 | – | – | – | – |
| CCO[C@@H](Cc1ccc(OCCN2CCSc3ccccc32)cc1)C(=O)O (as salt: salt) [Example 2, Metformin salt of (−)-3-[4-[2-(3,4-dihydro-2H-1,4-benzothiazin-4-yl)ethoxy]phenyl]-2-ethoxy propanoic acid] | 155 to 158 | – | – | – | – |
| CCO[C@@H](Cc1ccc(OCCN2CCSc3ccccc32)cc1)C(=O)O (as salt: salt) [Example 3, Dicyclohexylamine salt of (−)-3-[4-[2-(3,4-dihydro-2H-1,4-benzothiazin-4-yl)ethoxy]phenyl]-2-ethoxy propanoic acid] | 110 | – | – | – | – |
| CCO[C@@H](Cc1ccc(OCCN2CCSc3ccccc32)cc1)C(=O)O (as salt: salt) [Example 5, -Lysine salt of (−)-3-[4-[2-(3,4-dihydro-2H-1,4-benzothiazin-4-yl)ethoxy]phenyl]-2-ethoxy propanoic acid] | 142 to 144 | – | – | – | – |
| CCOC(Cc1ccc(OCCN2CCSc3ccccc32)cc1)C(=O)O (stereo in doubt) [Example 4, (R)-(+)-Methyl benzylamine salt of (−)-3-[4-[2-(3,4-dihydro-2H-1,4-benzothiazin-4-yl)ethoxy]phenyl]-2-ethoxy propanoic acid] | – | 55 | – | – | – |
| CCO[C@@H](Cc1ccc(OCCN2CCSc3ccccc32)cc1)C(=O)O [Example 1] | – | 66 | – | – | – |
| CCO[C@@H](Cc1ccc(OCCN2CCSc3ccccc32)cc1)C(=O)O [Example 2, Metformin salt of (−)-3-[4-[2-(3,4-dihydro-2H-1,4-benzothiazin-4-yl)ethoxy]phenyl]-2-ethoxy propanoic acid] | – | 55 | 9.8 | 3.0 | Reduction in Blood Glucose Level (%) [2]: 56%; Triglyceride Lowering (%) [2]: 59%; Ke1 [5]: 0.17 ± 0.03 h⁻¹; AUC(0-inf) ([5]; rat, plasma, 30 mg/kg): 320 ± 36.2 µg·h/mL; AUC(0-t) ([5]; rat, plasma, 30 mg/kg): 315 ± 34.7 µg·h/mL; Cmax ([5]; rat, plasma, 30 mg/kg): 77.2 ± 24.1 µg/mL; Tmax ([5]; rat, plasma, 30 mg/kg): 0.63 ± 0.25 h; half-life ([5]; rat, plasma, 30 mg/kg): 4.25 ± 0.86 h |
| CCO[C@@H](Cc1ccc(OCCN2CCSc3ccccc32)cc1)C(=O)O [Example 3, Dicyclohexylamine salt of (−)-3-[4-[2-(3,4-dihydro-2H-1,4-benzothiazin-4-yl)ethoxy]phenyl]-2-ethoxy propanoic acid] | – | – | 19 | 5.2 | – |
| CCO[C@@H](Cc1ccc(OCCN2CCSc3ccccc32)cc1)C(=O)O [Example 5, -Lysine salt of (−)-3-[4-[2-(3,4-dihydro-2H-1,4-benzothiazin-4-yl)ethoxy]phenyl]-2-ethoxy propanoic acid] | – | 46 | 7.6 | 3.5 | – |
| CCO[C@@H](Cc1ccc(OCCN2CCSc3ccccc32)cc1)C(=O)O [Example 6, Amino guanidine hydrogen carbonate salt of (−)-3-[4-[2-(3,4-dihydro-2H-1,4-benzothiazin-4-yl)ethoxy]phenyl]-2-ethoxy propanoic acid] | – | – | 21 | 4.7 | – |

Source: patent US20020142993A1, “Pharmaceutically acceptable salts of bicyclic compounds” (DR. REDDY'S LABORATORIES LTD., priority 2000, published 2002)
